How the values were obtained:
Format in all cases: biochemical
dog renin = biological target: T1, dog renin (Canis lupus familiaris, UniProt Q6DYE7); test: renin inhibition, species specificity (dog renin); settings: stated in words, compared with human renin
T1 sequence (Q6DYE7 66-403): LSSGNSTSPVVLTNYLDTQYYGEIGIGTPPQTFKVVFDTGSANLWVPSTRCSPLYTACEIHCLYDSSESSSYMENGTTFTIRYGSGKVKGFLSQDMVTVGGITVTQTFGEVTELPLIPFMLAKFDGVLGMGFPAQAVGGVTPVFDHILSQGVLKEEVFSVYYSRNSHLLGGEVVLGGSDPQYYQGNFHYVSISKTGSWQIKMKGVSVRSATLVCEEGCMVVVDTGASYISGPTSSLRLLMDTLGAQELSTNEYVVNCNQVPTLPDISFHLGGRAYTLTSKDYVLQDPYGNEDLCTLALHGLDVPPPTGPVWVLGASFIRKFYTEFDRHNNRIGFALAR

mouse renin = test: renin inhibition, species specificity (mouse renin); settings: stated in words, compared with human renin
rat renin = biological target: T2, rat renin (Rattus norvegicus, UniProt P08424); test: renin inhibition, species specificity (rat renin); settings: relative potency loss against rat renin
T2 sequence (P08424 65-402): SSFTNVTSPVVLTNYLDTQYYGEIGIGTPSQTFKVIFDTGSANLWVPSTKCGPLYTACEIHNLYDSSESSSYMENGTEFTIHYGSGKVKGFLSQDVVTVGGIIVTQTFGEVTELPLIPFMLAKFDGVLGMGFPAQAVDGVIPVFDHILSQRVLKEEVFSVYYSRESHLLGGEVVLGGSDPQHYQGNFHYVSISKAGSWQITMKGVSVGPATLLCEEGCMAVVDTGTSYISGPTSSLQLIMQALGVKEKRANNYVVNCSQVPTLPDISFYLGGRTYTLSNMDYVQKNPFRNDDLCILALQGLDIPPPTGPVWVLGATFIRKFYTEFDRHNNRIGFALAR

Q: Which “potency against dog renin” value (dog renin) does the source give for `COCCCOc1cc(C[C@@H](C[C@H](N)[C@@H](O)C[C@H](C(=O)NCC(C)(C)C(N)=O)C(C)C)C(C)C)ccc1OC` [aliskiren, 2(S),4(S),5(S),7(S)-N-(3-amino-2,2-dimethyl-3-oxopropyl)-2,7-di(1-methylethyl)-4-hydroxy-5-amino-8-[4-methoxy-3-(3-methoxy-propoxy)phenyl]-octanamide] here?
A: Its value is “reasonable potency”.

Q: And the “potency against mouse renin” value (mouse renin)?
A: The value was “reasonable potency”.

Q: What about the “weaker as a rat renin inhibitor” value (rat renin) of the same molecule?
A: Its value is 1-2 orders of magnitude.

From patent US20090005361A1, “Combination of Organic Compounds” (priority 2006, published 2009)
